According to EPA's ToxRefDB 2:

Assays:
mouse [1] = settings: Carcinogenicity; cd1; Oral; Feed; dose end: 102 week; group: systemic; systemic / organ weight / liver / absolute + systemic / organ weight / liver / relative to body weight
mouse [2] = settings: Carcinogenicity, cd1, Oral, Feed, dose end: 8 week, group: systemic
rat [3] = settings: Subchronic oral toxicity in rodents, sprague dawley, Feed, dose end: 90 day, group: systemic
rat [4] = settings: Combined chronic toxicity/carcinogenicity, sprague dawley, Oral, Feed, dose end: 104 week, group: systemic
dog [5] = settings: Chronic toxicity; beagle; Oral; Feed; dose end: 52 week; group: systemic; systemic / organ weight / thyroid gland / absolute + systemic / organ weight / thyroid gland / relative to body weight + systemic / …
dog [6] = settings: Subchronic oral toxicity in nonrodent, beagle, Feed, dose end: 13 week, group: systemic, systemic / in life observation / body weight / body weight + systemic / in life observation / body weight / body weight gain + systemic / in…
rat [7] = settings: Prenatal developmental toxicity study, sprague dawley, Oral, Gavage/Intubation, dose end: 15 GD
dog [8] = settings: Chronic toxicity, beagle, Oral, Feed, dose end: 8 week, group: systemic
rat [9] = settings: Combined chronic toxicity/carcinogenicity, sprague dawley, Oral, Feed, dose end: 24 month, group: systemic
rat [10] = settings: Multigenerational reproductive toxicity study, sprague dawley, Oral, Feed, dose end: 2 generation
mouse [11] = settings: Carcinogenicity, cd1, Oral, Feed, dose end: 18 month, group: systemic
dog [12] = settings: Subchronic oral toxicity in nonrodent, beagle, Feed, dose end: 13 week, group: systemic
rat [13] = settings: Subchronic oral toxicity in rodents, sprague dawley, Feed, dose end: 90 day, group: systemic; remark: listed apart in the source
rat [14] = settings: Prenatal developmental toxicity study, sprague dawley, Oral, Gavage/Intubation, dose end: 15 GD; remark: listed apart in the source
mouse [15] = settings: Subchronic oral toxicity in rodents, cd1, Feed, dose end: 13 week, group: systemic
dog [16] = settings: Chronic toxicity, beagle, Oral, Feed, dose end: 52 week, group: systemic
mouse [17] = settings: Carcinogenicity, cd1, Oral, Feed, dose end: 18 month, group: systemic; remark: listed apart in the source
dog [18] = settings: Subchronic oral toxicity in nonrodent, beagle, Feed, dose end: 13 week, group: systemic; remark: listed apart in the source
[19] = systemic / organ weight / liver / relative to body weight
[20] = systemic / organ weight / liver / relative to body weight + systemic / clinical chemistry / alkaline phosphatase (alp/alk) / alkaline …
[21] = systemic / clinical chemistry / albumin-globulin ratio / albumin-globulin ratio + systemic / clinical chemistry / phosphorus / phosphate
[22] = systemic / hematology / erythrocyte (rbc) count differential / erythrocyte (rbc) + systemic / hematology / leukocyte (wbc) count …
[23] = systemic / clinical chemistry / alanine aminotransferase (alt/sgpt) / alanine aminotransferase (alt/sgpt)
[24] = group: developmental, developmental / developmental malformation / bone / short
[25] = group: maternal, systemic / in life observation / mortality / mortality + reproductive / reproductive performance / resorptions / resorptions
[26] = systemic / clinical chemistry / alanine aminotransferase (alt/sgpt) / alanine aminotransferase (alt/sgpt) + systemic / clinical chemistry / …
[27] = systemic / in life observation / body weight / body weight + systemic / in life observation / body weight / body weight gain + systemic / …
[28] = group: offspring, systemic / in life observation / body weight / offspring (pup) weight + systemic / in life observation / body weight / offspring (pup) …
[29] = group: parental, systemic / in life observation / clinical signs / anogenital staining
[30] = group: parental, systemic / in life observation / clinical signs / anogenital staining + systemic / in life observation / body weight / body weight + …
[31] = systemic / in life observation / body weight / body weight gain
[32] = systemic / in life observation / clinical signs / defecation (diarrhea)
[33] = systemic / in life observation / clinical signs / defecation (diarrhea) + systemic / clinical chemistry / alpha-1 globulin / alpha-1 …
[34] = group: developmental, developmental / developmental malformation / kidney / dilated renal pelvis + developmental / developmental malformation / ureter / dilated
[35] = group: maternal, systemic / in life observation / body weight / body weight gain + systemic / in life observation / food consumption / food consumption
[36] = systemic / clinical chemistry / 5' nucleotidase / 5' nucleotidase + systemic / clinical chemistry / alkaline phosphatase (alp/alk) / …
[37] = systemic / in life observation / body weight / body weight gain + systemic / clinical chemistry / alkaline phosphatase (alp/alk) / alkaline …
[38] = systemic / in life observation / body weight / body weight + systemic / in life observation / food consumption / food consumption + systemic…

`C=CCC1=C(C)[C@@H](OC(=O)[C@@H]2[C@@H](C=C(C)C)C2(C)C)CC1=O` [S-Bioallethrin] was tested, and the LEL (mouse [1]) was 214 mg/kg/day, the LOAEL (mouse [1]) was > 214 mg/kg/day and the NEL (mouse [1]) was 41.9 mg/kg/day. The NOAEL (mouse [1]) was ≥ 214 mg/kg/day, the LEL (mouse [2]; [19]) was 420 mg/kg/day and the LOAEL (mouse [2]; [19]) was 420 mg/kg/day. The NEL (mouse [2]; [20]) was 229 mg/kg/day, the NOAEL (mouse [2]; [20]) was 229 mg/kg/day and the LEL (rat [3]; [21]) was 20.6 mg/kg/day. The NEL (rat [3]; [21]) was < 20.6 mg/kg/day, the LOAEL (rat [3]; [22]) was 36.6 mg/kg/day and the NOAEL (rat [3]; [22]) was 18.5 mg/kg/day. For the same compound, the LEL (rat [4]; [23]) was 7.2 mg/kg/day, the LOAEL (rat [4]; [23]) was 82.6 mg/kg/day and the NEL (rat [4]; [23]) was < 7.2 mg/kg/day. It also gave an NOAEL (rat [4]; systemic / clinical chemistry / alanine aminotransferase (alt/sgpt) / alanine aminotransferase (alt/sgpt) + systemic / pathology microscopic…) of 27 mg/kg/day, an LEL (dog [5]) of 2.7 mg/kg/day and an LOAEL (dog [5]) of 13.7 mg/kg/day. For the same compound, the NEL (dog [5]) was < 2.7 mg/kg/day, the NOAEL (dog [5]) was 2.7 mg/kg/day and the LEL (dog [6]) was 90.5 mg/kg/day. For the same compound, the LOAEL (dog [6]) was 90.5 mg/kg/day, the NEL (dog [6]) was 38.5 mg/kg/day and the NOAEL (dog [6]) was 38.5 mg/kg/day. The LEL (rat [7]; [24]) was 50 mg/kg/day, the LOAEL (rat [7]; [24]) was 50 mg/kg/day and the NEL (rat [7]; [24]) was < 50 mg/kg/day. The NOAEL (rat [7]; [24]) was < 50 mg/kg/day, the LOAEL (rat [7]; group: maternal, systemic / in life observation / mortality / mortality) was 195 mg/kg/day and the LEL (rat [7]; [25]) was 195 mg/kg/day. It also gave an NEL (rat [7]; [25]) of 125 mg/kg/day, an NOAEL (rat [7]; [25]) of 125 mg/kg/day and an LOAEL (dog [8]; [26]) of 63.2 mg/kg/day. For the same compound, the NEL (dog [8]; [26]) was 4.5 mg/kg/day, the NOAEL (dog [8]; [26]) was 19.5 mg/kg/day and the LEL (dog [8]; systemic / organ weight / liver / absolute + systemic / organ weight / liver / relative to body weight) was 19.5 mg/kg/day.

With `N#Cc1c[nH]cc1-c1cccc2c1OC(F)(F)O2` [Fludioxonil] the LOAEL (rat [9]; [27]) was 113 mg/kg/day, the NEL (rat [9]; [27]) was 3.7 mg/kg/day and the NOAEL (rat [9]; [27]) was 37 mg/kg/day. The LEL (rat [9]; systemic / in life observation / clinical signs / body surface staining + systemic / in life observation / clinical signs / feces, …) was 37 mg/kg/day, the LOAEL (rat [10]; group: offspring, systemic / in life observation / body weight / offspring (pup) weight) was 222 mg/kg/day and the LEL (rat [10]; [28]) was 222 mg/kg/day. It also gave an NEL (rat [10]; [28]) of 22.1 mg/kg/day, an NOAEL (rat [10]; [28]) of 22.1 mg/kg/day and an NEL (rat [10]; [29]) of 22.1 mg/kg/day. It also gave an NOAEL (rat [10]; [29]) of 22.1 mg/kg/day, an LEL (rat [10]; [30]) of 222 mg/kg/day and an LOAEL (rat [10]; [30]) of 222 mg/kg/day. For the same compound, the LEL (mouse [11]; [31]) was 1.1 mg/kg/day, the NEL (mouse [11]; [31]) was < 1.1 mg/kg/day and the NOAEL (mouse [11]; systemic / in life observation / body weight / body weight gain + systemic / in life observation / clinical signs / convulsions + systemic…) was 11.3 mg/kg/day. The LOAEL (mouse [11]; systemic / in life observation / clinical signs / convulsions + systemic / in life observation / clinical signs / urine, discoloration + …) was 112 mg/kg/day, the LEL (dog [12]; [32]) was 50 mg/kg/day and the LOAEL (dog [12]; [32]) was 50 mg/kg/day. For the same compound, the NEL (dog [12]; [33]) was 5 mg/kg/day, the NOAEL (dog [12]; [33]) was 5 mg/kg/day and the LOAEL (rat [13]; systemic / in life observation / body weight / body weight gain + systemic / pathology microscopic / kidney / nephropathy) was 428 mg/kg/day. It also gave an NOAEL (rat [13]; systemic / in life observation / body weight / body weight gain + systemic / pathology microscopic / kidney / nephropathy + systemic / …) of 64 mg/kg/day, an LEL (rat [13]; systemic / organ weight / thymus / relative to body weight) of 70 mg/kg/day and an NEL (rat [13]; systemic / organ weight / thymus / relative to body weight + systemic / clinical chemistry / alkaline phosphatase (alp/alk) / alkaline …) of 7.1 mg/kg/day. For the same compound, the LOAEL (rat [14]; [34]) was 1000 mg/kg/day, the NEL (rat [14]; [34]) was 10 mg/kg/day and the NOAEL (rat [14]; [34]) was 100 mg/kg/day. The LEL (rat [14]; group: developmental, developmental / developmental malformation / ureter / dilated) was 100 mg/kg/day, the LOAEL (rat [14]; group: maternal, systemic / in life observation / body weight / body weight gain) was 1000 mg/kg/day and the LEL (rat [14]; [35]) was 1000 mg/kg/day. For the same compound, the NEL (rat [14]; [35]) was 100 mg/kg/day, the NOAEL (rat [14]; [35]) was 100 mg/kg/day and the LOAEL (mouse [15]; [36]) was 1050 mg/kg/day. For the same compound, the NOAEL (mouse [15]; [36]) was 445 mg/kg/day, the LEL (mouse [15]; systemic / organ weight / liver / relative to body weight + systemic / pathology microscopic / liver / hypertrophy) was 559 mg/kg/day and the NEL (mouse [15]; systemic / organ weight / liver / relative to body weight + systemic / pathology microscopic / liver / hypertrophy + systemic / clinical …) was 178 mg/kg/day. It also gave an LEL (dog [16]; [31]) of 35.5 mg/kg/day, an LOAEL (dog [16]; [31]) of 35.5 mg/kg/day and an NEL (dog [16]; [37]) of 3.3 mg/kg/day. The NOAEL (dog [16]; [37]) was 3.3 mg/kg/day, the NEL (mouse [17]; systemic / organ weight / heart / absolute + systemic / organ weight / kidney / absolute + systemic / organ weight / liver / relative to …) was 3.3 mg/kg/day and the LOAEL (mouse [17]; systemic / pathology microscopic / kidney / nephropathy) was 590 mg/kg/day. For the same compound, the NOAEL (mouse [17]; systemic / pathology microscopic / kidney / nephropathy + systemic / hematology / hematocrit (hct) / hematocrit (hct) + systemic / …) was 3.3 mg/kg/day and the LEL (mouse [17]; systemic / pathology microscopic / kidney / nephropathy + systemic / hematology / hemoglobin (hgb) / hemoglobin (hgb) + systemic / …) was 590 mg/kg/day.

`Cn1sccc1=O` [2-Methyl-3(2H)-isothiazolone] showed an LOAEL (dog [18]; systemic / in life observation / body weight / body weight + systemic / in life observation / food consumption / food consumption) of 40.6 mg/kg/day, an LEL (dog [18]; [38]) of 40.6 mg/kg/day and an NEL (dog [18]; [38]) of 9.9 mg/kg/day. It also gave an NOAEL (dog [18]; [38]) of 9.9 mg/kg/day.
